Laboratory results published in doi:10.1101/2022.03.26.485909v4 (biorxiv, 2022).
pIC50, pKd: −log10 of the molar value.

Legend:
SPOP^MATH = SPOP^MATH (Homo sapiens, UniProt O43791); assay: fluorescence polarization, displacement of FITC-puc_SBC1 peptide; assay type: binding
RNF130 = target: T1, RNF130 (Homo sapiens, UniProt Q86XS8); assay: SPR, Biacore T200, amine-coupled RNF130 on CM5 chip; assay type: binding
T1 sequence (Q86XS8 28-304): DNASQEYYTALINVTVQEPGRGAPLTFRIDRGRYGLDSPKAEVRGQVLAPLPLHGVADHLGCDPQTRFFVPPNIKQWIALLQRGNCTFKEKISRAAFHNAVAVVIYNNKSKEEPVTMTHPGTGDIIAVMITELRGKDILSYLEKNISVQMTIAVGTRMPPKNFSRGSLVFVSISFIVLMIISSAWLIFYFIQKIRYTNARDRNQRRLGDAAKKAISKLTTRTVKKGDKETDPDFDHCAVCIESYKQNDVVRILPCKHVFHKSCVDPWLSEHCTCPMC

SPOP^MATH, sequence (O43791 28-166): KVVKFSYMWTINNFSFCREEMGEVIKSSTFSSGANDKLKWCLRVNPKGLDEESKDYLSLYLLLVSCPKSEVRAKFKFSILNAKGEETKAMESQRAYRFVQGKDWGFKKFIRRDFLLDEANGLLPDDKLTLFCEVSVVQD

Structure (SMILES) | pIC50 (SPOP^MATH) | pKd (RNF130)
Cc1nnc(SCC2=C(C(=O)O)N3C(=O)C(NC(=O)c4ccc(COc5ccccc5Cl)o4)C3SC2)s1 (stereo not drawn) [221C7] | 5.37 | –
CC(=O)OCC1=C(C(=O)O)N2C(=O)C(NC(=O)c3ccc(COc4ccc(Br)cc4Cl)o3)C2SC1 (stereo not drawn) [230D7, 3-(acetoxymethyl)-7-(5-((4-bromo-2-chlorophenoxy)methyl)furan-2-carboxamido)-8-oxo-5-thia-1-azabicyclo[4.2.0]oct-2-ene-2-carboxylic acid] | 5.06 | –
CS(=O)(=O)c1nnc(CN2C3C=C(c4ccccc4)CC2CC3)s1 (stereo not drawn) [iRNF130-63] | – | 5.03
